The numbers were not newly measured in paper PMC9389927 (Renal Failure, 2022), which cites them from elsewhere.

This data set has as its system experimental model of AKI.

In the case of “IGF-1: long-chain polypeptide composed of dozens of amino acids, including four domains, A, B, C and D”, the Glomerular filtration rate result is recorded as “increased the glomerular filtration rate”.
